{
  "source": "ChEMBL document CHEMBL3797099",
  "about": "“Re-exploration of the mGlu₁ PAM Ro 07-11401 scaffold: Discovery of analogs with improved CNS penetration despite steep SAR” (Bioorg Med Chem Lett, 2016)",
  "key": {"[1]": {"biological_target": "T1, Metabotropic glutamate receptor 1 (Homo sapiens, UniProt Q13255)", "test": "Positive allosteric modulation of human mGlu1 receptor assessed as increase in glutamate-induced calcium mobilization", "format": "functional"}, "[2]": {"biological_target": "T1, Metabotropic glutamate receptor 1", "test": "Positive allosteric modulation of human mGlu1 receptor assessed as increase in glutamate-induced calcium mobilization relative to glutamate", "format": "functional"}, "Cytochrome P450 2D6": {"biological_target": "Cytochrome P450 2D6 (Homo sapiens, UniProt P10635)", "sequence (P10635 whole entry)": "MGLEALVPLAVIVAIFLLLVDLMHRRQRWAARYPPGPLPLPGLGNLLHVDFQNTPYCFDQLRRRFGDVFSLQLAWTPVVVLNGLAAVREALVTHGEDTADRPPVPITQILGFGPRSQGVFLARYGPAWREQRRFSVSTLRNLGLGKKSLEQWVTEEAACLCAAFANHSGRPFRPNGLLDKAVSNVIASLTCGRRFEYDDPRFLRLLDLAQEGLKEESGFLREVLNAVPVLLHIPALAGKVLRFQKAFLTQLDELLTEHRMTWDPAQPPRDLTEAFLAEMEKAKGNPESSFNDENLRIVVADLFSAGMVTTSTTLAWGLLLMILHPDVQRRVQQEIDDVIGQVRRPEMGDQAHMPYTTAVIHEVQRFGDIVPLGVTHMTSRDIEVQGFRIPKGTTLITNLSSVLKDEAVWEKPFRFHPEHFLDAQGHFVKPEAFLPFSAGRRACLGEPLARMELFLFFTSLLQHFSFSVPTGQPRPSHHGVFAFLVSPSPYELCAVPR", "test": "Inhibition of CYP2D6 (unknown origin)", "format": "ADME"}, "[3]": {"biological_target": "Metabotropic glutamate receptor 1 (Rattus norvegicus) (UniProt P23385)", "sequence (P23385 19-1199 limits assumed)": "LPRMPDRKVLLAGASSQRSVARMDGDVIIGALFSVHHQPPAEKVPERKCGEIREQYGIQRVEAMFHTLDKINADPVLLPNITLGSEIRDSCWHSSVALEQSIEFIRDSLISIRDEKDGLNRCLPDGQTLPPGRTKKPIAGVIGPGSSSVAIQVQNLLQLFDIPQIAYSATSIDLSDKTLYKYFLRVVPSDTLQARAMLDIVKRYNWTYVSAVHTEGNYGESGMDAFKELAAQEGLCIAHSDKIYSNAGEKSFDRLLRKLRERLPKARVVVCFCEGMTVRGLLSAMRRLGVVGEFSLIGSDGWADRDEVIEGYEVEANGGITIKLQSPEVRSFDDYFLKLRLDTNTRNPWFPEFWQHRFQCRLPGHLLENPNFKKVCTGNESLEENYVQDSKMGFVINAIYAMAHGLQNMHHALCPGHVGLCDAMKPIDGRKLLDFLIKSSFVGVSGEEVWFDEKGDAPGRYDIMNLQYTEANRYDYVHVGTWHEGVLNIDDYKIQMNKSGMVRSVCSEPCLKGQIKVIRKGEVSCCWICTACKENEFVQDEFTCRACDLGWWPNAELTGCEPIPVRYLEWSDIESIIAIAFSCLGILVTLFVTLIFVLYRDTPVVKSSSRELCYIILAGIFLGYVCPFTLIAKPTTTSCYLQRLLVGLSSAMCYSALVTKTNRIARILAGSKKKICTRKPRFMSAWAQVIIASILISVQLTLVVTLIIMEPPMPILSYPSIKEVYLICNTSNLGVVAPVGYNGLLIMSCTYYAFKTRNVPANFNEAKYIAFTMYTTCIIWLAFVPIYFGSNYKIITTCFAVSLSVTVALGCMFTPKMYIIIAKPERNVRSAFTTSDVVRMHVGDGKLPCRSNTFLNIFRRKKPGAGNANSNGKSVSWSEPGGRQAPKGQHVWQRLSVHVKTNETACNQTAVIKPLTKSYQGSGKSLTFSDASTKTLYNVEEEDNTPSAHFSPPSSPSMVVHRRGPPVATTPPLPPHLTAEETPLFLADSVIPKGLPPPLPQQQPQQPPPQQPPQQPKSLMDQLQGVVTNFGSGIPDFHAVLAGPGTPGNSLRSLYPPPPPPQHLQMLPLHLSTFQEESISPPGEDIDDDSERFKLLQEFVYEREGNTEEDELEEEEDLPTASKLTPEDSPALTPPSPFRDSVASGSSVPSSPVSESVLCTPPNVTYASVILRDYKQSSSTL", "test": "Positive allosteric modulation of rat mGlu1 receptor assessed as increase in glutamate-induced calcium mobilization relative to glutamate", "format": "functional"}, "[4]": {"test": "Ratio of drug level in brain to plasma in rat at 0.25 mg/kg, iv", "format": "ADME, organism-based"}, "Plasma [5]": {"system": "Plasma", "test": "Fraction unbound in rat plasma", "format": "ADME, cell-free"}, "Cytochrome P450 3A4": {"biological_target": "Cytochrome P450 3A4 (Homo sapiens, UniProt P08684)", "sequence (P08684 whole entry)": "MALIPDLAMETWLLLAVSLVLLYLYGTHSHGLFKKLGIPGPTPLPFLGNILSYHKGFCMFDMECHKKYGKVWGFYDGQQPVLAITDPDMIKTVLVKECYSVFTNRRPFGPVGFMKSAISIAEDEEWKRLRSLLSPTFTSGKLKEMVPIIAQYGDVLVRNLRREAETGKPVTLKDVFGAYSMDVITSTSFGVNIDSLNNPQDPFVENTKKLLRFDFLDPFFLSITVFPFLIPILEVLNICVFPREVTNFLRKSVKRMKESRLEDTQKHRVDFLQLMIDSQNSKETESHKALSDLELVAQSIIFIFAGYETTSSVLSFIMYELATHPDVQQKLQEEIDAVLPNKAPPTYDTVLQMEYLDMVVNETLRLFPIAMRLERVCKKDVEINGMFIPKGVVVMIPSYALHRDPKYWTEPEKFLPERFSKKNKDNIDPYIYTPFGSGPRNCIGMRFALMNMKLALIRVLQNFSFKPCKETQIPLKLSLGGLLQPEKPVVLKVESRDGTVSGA", "test": "Inhibition of CYP3A4 (unknown origin)", "format": "ADME"}, "[6]": {"test": "Fraction unbound in human plasma", "format": "ADME, cell-free"}, "Cytochrome P450 1A2": {"biological_target": "T2, Cytochrome P450 1A2 (Homo sapiens, UniProt P05177)", "T2 sequence (P05177 whole entry)": "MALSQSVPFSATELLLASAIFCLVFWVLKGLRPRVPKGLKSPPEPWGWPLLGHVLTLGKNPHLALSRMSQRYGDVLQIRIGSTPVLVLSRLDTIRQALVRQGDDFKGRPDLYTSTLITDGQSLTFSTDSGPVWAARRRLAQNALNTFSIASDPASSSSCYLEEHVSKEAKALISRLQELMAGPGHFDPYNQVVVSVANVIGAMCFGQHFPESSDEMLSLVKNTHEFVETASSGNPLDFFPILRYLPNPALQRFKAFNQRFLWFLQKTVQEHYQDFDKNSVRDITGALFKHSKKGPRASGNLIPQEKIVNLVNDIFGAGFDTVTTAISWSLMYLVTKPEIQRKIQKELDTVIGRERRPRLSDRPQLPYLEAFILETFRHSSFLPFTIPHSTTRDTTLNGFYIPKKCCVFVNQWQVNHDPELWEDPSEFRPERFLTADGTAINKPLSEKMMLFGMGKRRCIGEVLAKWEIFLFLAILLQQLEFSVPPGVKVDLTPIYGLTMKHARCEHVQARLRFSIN", "test": "Inhibition of CYP1A2 (unknown origin)", "format": "ADME"}, "Brain [7]": {"system": "Brain", "test": "Fraction unbound in rat brain homogenate", "format": "ADME, tissue-based"}, "[8]": {"biological_target": "Metabotropic glutamate receptor 1 (Rattus norvegicus, UniProt P23385)", "sequence (P23385 whole entry)": "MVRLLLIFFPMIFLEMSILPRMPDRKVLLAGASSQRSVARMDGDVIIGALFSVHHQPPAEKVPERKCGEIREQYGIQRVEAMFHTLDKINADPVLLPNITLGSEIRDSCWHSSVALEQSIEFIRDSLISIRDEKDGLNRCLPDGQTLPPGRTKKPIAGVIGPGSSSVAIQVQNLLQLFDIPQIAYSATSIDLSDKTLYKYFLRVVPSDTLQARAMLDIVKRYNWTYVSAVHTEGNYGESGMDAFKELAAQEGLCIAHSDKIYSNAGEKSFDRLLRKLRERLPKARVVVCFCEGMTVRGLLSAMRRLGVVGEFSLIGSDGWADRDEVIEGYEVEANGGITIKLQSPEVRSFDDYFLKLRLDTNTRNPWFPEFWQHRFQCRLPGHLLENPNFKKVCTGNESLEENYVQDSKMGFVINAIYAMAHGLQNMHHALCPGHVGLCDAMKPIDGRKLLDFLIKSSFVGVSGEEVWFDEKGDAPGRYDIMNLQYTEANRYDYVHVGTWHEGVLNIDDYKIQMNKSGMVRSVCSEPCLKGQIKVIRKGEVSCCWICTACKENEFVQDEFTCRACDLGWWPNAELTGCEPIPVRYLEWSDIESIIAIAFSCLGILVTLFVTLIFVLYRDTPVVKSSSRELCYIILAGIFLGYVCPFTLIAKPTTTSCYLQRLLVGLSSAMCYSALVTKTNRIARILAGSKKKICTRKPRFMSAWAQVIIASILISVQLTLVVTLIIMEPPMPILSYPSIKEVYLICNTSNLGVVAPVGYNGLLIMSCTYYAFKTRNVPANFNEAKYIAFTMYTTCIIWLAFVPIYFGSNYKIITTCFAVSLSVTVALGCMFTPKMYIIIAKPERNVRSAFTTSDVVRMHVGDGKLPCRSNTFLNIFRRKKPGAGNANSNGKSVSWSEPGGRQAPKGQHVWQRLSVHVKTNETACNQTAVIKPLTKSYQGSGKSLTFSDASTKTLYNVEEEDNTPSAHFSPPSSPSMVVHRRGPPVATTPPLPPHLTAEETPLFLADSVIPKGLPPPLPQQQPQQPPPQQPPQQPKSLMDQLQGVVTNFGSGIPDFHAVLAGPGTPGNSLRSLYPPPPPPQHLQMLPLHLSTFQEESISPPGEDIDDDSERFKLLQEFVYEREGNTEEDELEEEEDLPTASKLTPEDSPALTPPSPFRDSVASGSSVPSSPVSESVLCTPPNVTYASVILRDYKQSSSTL", "test": "Positive allosteric modulation of rat mGlu1 receptor assessed as increase in glutamate-induced calcium mobilization", "format": "functional"}, "Brain [9]": {"system": "Brain", "test": "Drug uptake in rat brain at 0.25 mg/kg, iv measured at the last time point", "format": "ADME, organism-based", "conditions": "in vivo"}, "Plasma [10]": {"system": "Plasma", "test": "Plasma concentration in rat at 0.25 mg/kg, iv measured at the last time point", "format": "ADME, organism-based", "conditions": "in vivo"}, "Cytochrome P450 2C9": {"biological_target": "Cytochrome P450 2C9 (Homo sapiens, UniProt P11712)", "sequence (P11712 whole entry)": "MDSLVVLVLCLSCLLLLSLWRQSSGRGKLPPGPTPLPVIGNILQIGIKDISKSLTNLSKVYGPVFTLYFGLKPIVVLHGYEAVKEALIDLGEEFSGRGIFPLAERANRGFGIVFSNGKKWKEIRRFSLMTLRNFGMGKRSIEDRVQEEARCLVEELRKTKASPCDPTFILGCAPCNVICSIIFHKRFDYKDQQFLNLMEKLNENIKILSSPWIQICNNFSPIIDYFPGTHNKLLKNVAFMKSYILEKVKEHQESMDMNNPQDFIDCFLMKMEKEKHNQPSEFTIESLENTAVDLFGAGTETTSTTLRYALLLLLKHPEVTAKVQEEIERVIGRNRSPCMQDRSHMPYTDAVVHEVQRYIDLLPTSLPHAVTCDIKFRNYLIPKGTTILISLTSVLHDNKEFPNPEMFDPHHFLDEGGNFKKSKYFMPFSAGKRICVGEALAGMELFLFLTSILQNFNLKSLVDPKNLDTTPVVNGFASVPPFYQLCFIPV", "test": "Inhibition of CYP2C9 (unknown origin)", "format": "ADME"}, "[11]": {"test": "Intrinsic clearance in human liver microsomes", "format": "ADME", "conditions": "read-out: CLH"}, "[12]": {"biological_target": "T1, Metabotropic glutamate receptor 1", "test": "Positive allosteric modulation of human mGlu1 receptor assessed as potentiation of glutamate-induced effect at 10 uM relative to control"}, "[13]": {"biological_target": "T1, Metabotropic glutamate receptor 1", "test": "Positive allosteric modulation of human mGlu1 receptor assessed as glutamate efficacy at 10 uM (reference value: 95.2 +/- 3.5 %)"}, "[14]": {"biological_target": "T1, Metabotropic glutamate receptor 1", "test": "Positive allosteric modulation of human mGlu1 receptor expressed in wild type T-Rex 293 cells assessed as increase in glutamate-induced calcium mobilization incubated for 2 mins before glutamate stimulation for 2.2 mins relative to glutamate", "format": "functional, cell-based"}, "[15]": {"biological_target": "T1, Metabotropic glutamate receptor 1", "test": "Positive allosteric modulation of human mGlu1 receptor expressed in wild type T-Rex 293 cells assessed as increase in glutamate-induced calcium mobilization incubated for 2 mins before glutamate stimulation for 2.2 mins", "format": "functional, cell-based"}},
  "data": [
    {"smiles": "Cc1nsc(NC(=O)C2c3ccccc3Oc3ccccc32)n1", "values": [
      {"measurement": "EC50", "setting": "[1]; read-out: EC50", "value": 2700, "unit": "nM"},
      {"measurement": "%max", "setting": "[2]", "value": 101, "unit": "%"}
    ]},
    {"smiles": "O=C(Nc1nc2ccccc2s1)C1c2ccccc2Oc2ccccc21", "values": [
      {"measurement": "EC50", "setting": "[1]; read-out: EC50", "value": 4800, "unit": "nM"},
      {"measurement": "%max", "setting": "[2]", "value": 96, "unit": "%"}
    ]},
    {"smiles": "O=C(Nc1cncs1)C1c2ccccc2Oc2ccccc21", "values": [
      {"measurement": "pEC50", "setting": "[1]", "value": "< 5"},
      {"measurement": "EC50", "setting": "[1]; read-out: EC50", "value": "> 10000", "unit": "nM"},
      {"measurement": "%max", "setting": "[2]", "value": 54, "unit": "%"}
    ]},
    {"smiles": "Cc1nc(NC(=O)C2c3ccccc3Oc3ccccc32)sc1C", "values": [
      {"measurement": "pEC50", "setting": "[1]", "value": "< 5"},
      {"measurement": "EC50", "setting": "[1]; read-out: EC50", "value": "> 10000", "unit": "nM"},
      {"measurement": "%max", "setting": "[2]", "value": 68, "unit": "%"}
    ]},
    {"smiles": "N#Cc1csc(NC(=O)C2c3ccccc3Oc3ccccc32)n1", "values": [
      {"measurement": "IC50", "setting": "Cytochrome P450 2D6", "value": 10300, "unit": "nM"},
      {"measurement": "%max", "setting": "[3]", "value": 124, "unit": "%"},
      {"measurement": "Kp", "setting": "[4]", "value": 1.19},
      {"measurement": "Fu", "setting": "Plasma [5]", "value": 0.005},
      {"measurement": "IC50", "setting": "Cytochrome P450 3A4", "value": "> 30000", "unit": "nM"},
      {"measurement": "Fu", "setting": "[6]", "value": 0.027},
      {"measurement": "IC50", "setting": "Cytochrome P450 1A2", "value": 2900, "unit": "nM"},
      {"measurement": "Fu", "setting": "Brain [7]", "value": 0.017},
      {"measurement": "EC50", "setting": "[1]; read-out: EC50", "value": 710, "unit": "nM"},
      {"measurement": "EC50", "setting": "[1]; read-out: pEC50 (converted)", "value": 724, "unit": "nM"},
      {"measurement": "EC50", "setting": "[8]; read-out: EC50", "value": 1800, "unit": "nM"},
      {"measurement": "Drug uptake", "setting": "Brain [9]", "value": 83.6, "unit": "ng/g"},
      {"measurement": "Cp", "setting": "Plasma [10]", "value": 80.2, "unit": "ng/mL"},
      {"measurement": "IC50", "setting": "Cytochrome P450 2C9", "value": 2900, "unit": "nM"},
      {"measurement": "CLint scaled", "setting": "[11]", "value": 9.85, "unit": "mL/min/kg"},
      {"measurement": "%max", "setting": "[2]", "value": 110, "unit": "%"},
      {"measurement": "fold change (FC)", "setting": "[12]", "value": 5.4},
      {"measurement": "Efficacy", "setting": "[13]", "value": 115, "unit": "%"}
    ]},
    {"smiles": "O=C(Nc1ccccn1)C1c2ccccc2Oc2ccccc21", "values": [
      {"measurement": "EC50", "setting": "[1]; read-out: EC50", "value": 1700, "unit": "nM"},
      {"measurement": "%max", "setting": "[2]", "value": 58, "unit": "%"}
    ]},
    {"smiles": "CC(C)c1csc(NC(=O)C2c3ccccc3Oc3ccccc32)n1", "values": [
      {"measurement": "IC50", "setting": "Cytochrome P450 2D6", "value": 26500, "unit": "nM"},
      {"measurement": "%max", "setting": "[3]", "value": 111, "unit": "%"},
      {"measurement": "Kp", "setting": "[4]", "value": 1.01},
      {"measurement": "Fu", "setting": "Plasma [5]", "value": 0.002},
      {"measurement": "IC50", "setting": "Cytochrome P450 3A4", "value": "> 30000", "unit": "nM"},
      {"measurement": "Fu", "setting": "[6]", "value": 0.001},
      {"measurement": "IC50", "setting": "Cytochrome P450 1A2", "value": 19000, "unit": "nM"},
      {"measurement": "Fu", "setting": "Brain [7]", "value": 0.001},
      {"measurement": "EC50", "setting": "[1]; read-out: EC50", "value": 900, "unit": "nM"},
      {"measurement": "EC50", "setting": "[8]; read-out: EC50", "value": 2400, "unit": "nM"},
      {"measurement": "Drug uptake", "setting": "Brain [9]", "value": 78.7, "unit": "ng/g"},
      {"measurement": "Cp", "setting": "Plasma [10]", "value": 77.8, "unit": "ng/mL"},
      {"measurement": "IC50", "setting": "Cytochrome P450 2C9", "value": 2100, "unit": "nM"},
      {"measurement": "CLint scaled", "setting": "[11]", "value": 15.5, "unit": "mL/min/kg"},
      {"measurement": "%max", "setting": "[2]", "value": 89, "unit": "%"},
      {"measurement": "fold change (FC)", "setting": "[12]", "value": 4.6},
      {"measurement": "Efficacy", "setting": "[13]", "value": 115, "unit": "%"}
    ]},
    {"smiles": "O=C(Nc1nc(C(F)(F)F)co1)C1c2ccccc2Oc2ccccc21", "values": [
      {"measurement": "IC50", "setting": "Cytochrome P450 2D6", "value": "> 30000", "unit": "nM"},
      {"measurement": "%max", "setting": "[3]", "value": 109, "unit": "%"},
      {"measurement": "Kp", "setting": "[4]", "value": 0.29},
      {"measurement": "IC50", "setting": "Cytochrome P450 3A4", "value": "> 30000", "unit": "nM"},
      {"measurement": "%max", "setting": "[14]", "value": 96, "unit": "%"},
      {"measurement": "Fu", "setting": "Brain [7]", "value": 0.001},
      {"measurement": "EC50", "setting": "[15]", "value": 246, "unit": "nM"},
      {"measurement": "EC50", "setting": "[8]; read-out: EC50", "value": 276, "unit": "nM"},
      {"measurement": "Drug uptake", "setting": "Brain [9]", "value": 81, "unit": "ng/g"},
      {"measurement": "Cp", "setting": "Plasma [10]", "value": 276, "unit": "ng/mL"},
      {"measurement": "fold change (FC)", "setting": "[12]", "value": 6.9},
      {"measurement": "Efficacy", "setting": "[13]", "value": 109, "unit": "%"}
    ]},
    {"smiles": "O=C(Nc1nccs1)C1c2ccccc2Oc2ccccc21", "values": [
      {"measurement": "%max", "setting": "[3]", "value": 111, "unit": "%"},
      {"measurement": "EC50", "setting": "[1]; read-out: EC50", "value": 1400, "unit": "nM"},
      {"measurement": "EC50", "setting": "[8]; read-out: EC50", "value": 3600, "unit": "nM"},
      {"measurement": "EC50", "setting": "[8]; read-out: pEC50 (converted)", "value": 3720, "unit": "nM"},
      {"measurement": "%max", "setting": "[2]", "value": 75, "unit": "%"}
    ]}
  ]
}
